In ChEMBL document CHEMBL5291721, “A preclinical secondary pharmacology resource illuminates target-adverse drug reaction associations of marketed drugs” (Nat Commun, 2023):
*1 amine or outer side, *2 acyl side, *3 side chain or, on linkers, in order; H or OH if unused. Where a SMILES comes first, the peptide text is derived from it. Bridges are numbered along the chain shown (N, C = ends). [ ]: non-standard residue; d: D form. The star is where a group is joined. hTyr(3S-OH,4S-OH,3'-OSO3H) = N[C@H](C(=O)O)[C@H](O)[C@@H](O)c1ccc(O)c(OS(=O)(=O)O)c1; Orn(4R-OH,5R-OH) = O=C([C@H](C[C@@H](O)[C@@H](O)N[*:3])N[*:1])[*:2]; Pro(3S-OH,4S-Me) = C[C@H]1CN[C@H](C(=O)O)[C@H]1O; X1 = CCCCCOc1ccc(-c2cc(-c3ccc(C(=O)*)cc3)no2)cc1; Gln(3R-OH) = NC(=O)C[C@@H](O)[C@H](N)C(=O)O; Hyp = O=C(O)[C@@H]1C[C@@H](O)CN1

Columns and labels:
Adenosine receptor A1 = target: T1, Adenosine receptor A1 (Homo sapiens, UniProt P30542)
T1 sequence (P30542 whole entry): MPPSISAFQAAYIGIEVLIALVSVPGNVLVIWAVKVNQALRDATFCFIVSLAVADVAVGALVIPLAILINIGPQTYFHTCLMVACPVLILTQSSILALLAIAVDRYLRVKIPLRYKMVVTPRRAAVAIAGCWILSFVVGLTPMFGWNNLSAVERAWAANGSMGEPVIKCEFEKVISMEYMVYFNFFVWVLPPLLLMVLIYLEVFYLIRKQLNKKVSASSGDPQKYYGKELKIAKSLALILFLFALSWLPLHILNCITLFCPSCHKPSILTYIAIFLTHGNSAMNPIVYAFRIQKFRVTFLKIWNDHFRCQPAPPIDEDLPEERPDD

Adenosine receptor A3 = target: T2, Adenosine receptor A3 (Homo sapiens, UniProt P0DMS8)
T2 sequence (P0DMS8 whole entry): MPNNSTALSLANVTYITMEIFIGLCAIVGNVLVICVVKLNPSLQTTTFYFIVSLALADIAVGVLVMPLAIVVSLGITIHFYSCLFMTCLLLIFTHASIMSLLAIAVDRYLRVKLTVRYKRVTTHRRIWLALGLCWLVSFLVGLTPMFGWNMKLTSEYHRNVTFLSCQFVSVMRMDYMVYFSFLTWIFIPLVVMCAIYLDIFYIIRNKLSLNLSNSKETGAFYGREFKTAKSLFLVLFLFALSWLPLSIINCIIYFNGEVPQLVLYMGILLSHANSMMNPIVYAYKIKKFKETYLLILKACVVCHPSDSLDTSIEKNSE

[1] = target: T3, Type-1 angiotensin II receptor (Homo sapiens, UniProt P30556)
T3 sequence (P30556 whole entry): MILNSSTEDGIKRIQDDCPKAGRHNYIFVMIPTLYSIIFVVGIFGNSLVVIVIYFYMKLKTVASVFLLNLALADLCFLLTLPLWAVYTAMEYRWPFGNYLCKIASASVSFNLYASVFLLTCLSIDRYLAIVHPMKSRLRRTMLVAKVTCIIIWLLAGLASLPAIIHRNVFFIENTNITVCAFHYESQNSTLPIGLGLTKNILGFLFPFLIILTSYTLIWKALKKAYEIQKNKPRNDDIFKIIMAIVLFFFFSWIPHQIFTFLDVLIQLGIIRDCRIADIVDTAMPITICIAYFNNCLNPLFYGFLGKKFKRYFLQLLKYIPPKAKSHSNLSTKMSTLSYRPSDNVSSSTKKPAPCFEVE

[2] = target: T4, Muscarinic acetylcholine receptor M1 (Homo sapiens, UniProt P11229); type: functional, cell-based
T4 sequence (P11229 whole entry): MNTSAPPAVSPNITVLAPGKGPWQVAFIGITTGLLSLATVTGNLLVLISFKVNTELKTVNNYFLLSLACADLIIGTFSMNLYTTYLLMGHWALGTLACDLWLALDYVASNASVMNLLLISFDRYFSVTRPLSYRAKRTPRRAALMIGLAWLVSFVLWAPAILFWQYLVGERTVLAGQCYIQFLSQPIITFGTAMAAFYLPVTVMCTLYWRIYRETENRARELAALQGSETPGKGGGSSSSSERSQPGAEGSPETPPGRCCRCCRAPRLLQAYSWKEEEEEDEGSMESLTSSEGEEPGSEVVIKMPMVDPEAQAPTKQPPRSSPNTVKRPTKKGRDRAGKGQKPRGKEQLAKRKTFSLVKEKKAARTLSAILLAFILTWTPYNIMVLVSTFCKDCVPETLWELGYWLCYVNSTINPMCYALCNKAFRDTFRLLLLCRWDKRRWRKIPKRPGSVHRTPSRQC

[3] = target: T5, Muscarinic acetylcholine receptor M2 (Homo sapiens, UniProt P08172); type: functional, cell-based
T5 sequence (P08172 whole entry): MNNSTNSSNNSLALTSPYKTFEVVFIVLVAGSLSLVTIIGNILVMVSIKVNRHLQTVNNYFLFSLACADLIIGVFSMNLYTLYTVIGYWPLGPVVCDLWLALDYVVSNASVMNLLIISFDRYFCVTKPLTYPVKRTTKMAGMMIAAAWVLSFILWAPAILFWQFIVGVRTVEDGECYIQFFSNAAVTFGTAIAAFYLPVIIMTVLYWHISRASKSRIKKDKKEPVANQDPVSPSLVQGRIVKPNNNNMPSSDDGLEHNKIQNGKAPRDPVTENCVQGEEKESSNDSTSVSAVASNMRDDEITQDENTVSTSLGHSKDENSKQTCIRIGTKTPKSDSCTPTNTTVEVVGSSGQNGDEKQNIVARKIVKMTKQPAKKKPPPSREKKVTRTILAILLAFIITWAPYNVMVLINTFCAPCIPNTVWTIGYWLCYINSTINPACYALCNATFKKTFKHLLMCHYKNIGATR

[4] = target: Neuronal acetylcholine receptor subunit alpha-4 (Homo sapiens, UniProt P43681)
Sequence of Neuronal acetylcholine receptor subunit alpha-4 (P43681 whole entry): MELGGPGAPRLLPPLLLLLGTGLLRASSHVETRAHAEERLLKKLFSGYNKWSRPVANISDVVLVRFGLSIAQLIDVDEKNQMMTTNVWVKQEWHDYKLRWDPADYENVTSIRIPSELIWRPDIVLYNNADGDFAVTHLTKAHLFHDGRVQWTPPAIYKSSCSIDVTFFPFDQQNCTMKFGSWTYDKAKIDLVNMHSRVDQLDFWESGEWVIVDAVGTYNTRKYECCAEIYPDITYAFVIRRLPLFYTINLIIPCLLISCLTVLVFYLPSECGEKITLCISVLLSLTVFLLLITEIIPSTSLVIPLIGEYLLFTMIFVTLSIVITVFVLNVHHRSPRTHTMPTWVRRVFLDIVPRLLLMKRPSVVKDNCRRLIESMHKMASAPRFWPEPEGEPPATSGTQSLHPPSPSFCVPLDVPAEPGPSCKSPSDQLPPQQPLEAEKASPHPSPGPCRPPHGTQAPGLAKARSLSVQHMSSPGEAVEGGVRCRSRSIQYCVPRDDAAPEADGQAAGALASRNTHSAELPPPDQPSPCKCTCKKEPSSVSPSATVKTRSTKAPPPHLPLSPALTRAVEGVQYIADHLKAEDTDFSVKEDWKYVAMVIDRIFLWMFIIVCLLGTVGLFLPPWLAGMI

D(1A) dopamine receptor = D(1A) dopamine receptor (Homo sapiens, UniProt P21728); type: functional, cell-based
Sequence of D(1A) dopamine receptor (P21728 whole entry): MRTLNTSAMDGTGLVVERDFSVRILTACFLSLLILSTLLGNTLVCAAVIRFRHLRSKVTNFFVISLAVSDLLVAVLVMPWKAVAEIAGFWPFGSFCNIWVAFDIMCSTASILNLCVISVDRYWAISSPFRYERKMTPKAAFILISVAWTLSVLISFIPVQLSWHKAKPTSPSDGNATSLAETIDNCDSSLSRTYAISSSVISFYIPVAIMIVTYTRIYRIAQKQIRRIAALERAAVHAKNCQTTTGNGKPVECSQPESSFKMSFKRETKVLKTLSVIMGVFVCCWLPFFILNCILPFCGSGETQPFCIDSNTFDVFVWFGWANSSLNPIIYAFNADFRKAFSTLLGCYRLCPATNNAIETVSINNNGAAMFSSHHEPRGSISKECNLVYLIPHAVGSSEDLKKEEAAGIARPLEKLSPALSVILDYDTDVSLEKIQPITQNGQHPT

[5] = target: Gamma-aminobutyric acid receptor subunit alpha-1 (Rattus norvegicus, UniProt P62813); type: functional
Sequence of Gamma-aminobutyric acid receptor subunit alpha-1 (P62813 whole entry): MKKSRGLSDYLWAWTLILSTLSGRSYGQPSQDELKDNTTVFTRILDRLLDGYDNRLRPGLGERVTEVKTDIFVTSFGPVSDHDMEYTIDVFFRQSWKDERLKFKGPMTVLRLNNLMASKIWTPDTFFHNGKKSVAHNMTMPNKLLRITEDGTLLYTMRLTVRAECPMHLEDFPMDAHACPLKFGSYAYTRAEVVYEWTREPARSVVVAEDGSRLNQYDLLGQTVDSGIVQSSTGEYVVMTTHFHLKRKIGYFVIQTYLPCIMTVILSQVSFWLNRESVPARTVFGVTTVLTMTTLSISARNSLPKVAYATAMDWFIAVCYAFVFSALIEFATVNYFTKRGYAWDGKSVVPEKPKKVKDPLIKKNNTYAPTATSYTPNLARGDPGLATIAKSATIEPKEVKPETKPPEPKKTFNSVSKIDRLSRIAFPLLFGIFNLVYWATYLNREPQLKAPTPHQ

[6] = target: T6, Neuropeptide Y receptor type 1 (Homo sapiens, UniProt P25929)
T6 sequence (P25929 whole entry): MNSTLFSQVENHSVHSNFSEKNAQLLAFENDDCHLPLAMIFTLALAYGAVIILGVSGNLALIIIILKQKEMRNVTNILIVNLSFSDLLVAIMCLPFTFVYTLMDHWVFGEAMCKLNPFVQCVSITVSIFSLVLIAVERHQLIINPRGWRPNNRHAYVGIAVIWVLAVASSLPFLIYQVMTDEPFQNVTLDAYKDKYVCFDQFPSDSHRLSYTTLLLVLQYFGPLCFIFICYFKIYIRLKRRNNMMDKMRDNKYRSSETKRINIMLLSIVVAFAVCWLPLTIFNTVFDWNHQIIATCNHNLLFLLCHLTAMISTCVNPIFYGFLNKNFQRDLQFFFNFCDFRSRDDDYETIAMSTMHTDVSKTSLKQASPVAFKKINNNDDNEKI

[7] = target: cGMP-inhibited 3',5'-cyclic phosphodiesterase 3A (Homo sapiens, UniProt Q14432); type: functional
Sequence of cGMP-inhibited 3',5'-cyclic phosphodiesterase 3A (Q14432 whole entry): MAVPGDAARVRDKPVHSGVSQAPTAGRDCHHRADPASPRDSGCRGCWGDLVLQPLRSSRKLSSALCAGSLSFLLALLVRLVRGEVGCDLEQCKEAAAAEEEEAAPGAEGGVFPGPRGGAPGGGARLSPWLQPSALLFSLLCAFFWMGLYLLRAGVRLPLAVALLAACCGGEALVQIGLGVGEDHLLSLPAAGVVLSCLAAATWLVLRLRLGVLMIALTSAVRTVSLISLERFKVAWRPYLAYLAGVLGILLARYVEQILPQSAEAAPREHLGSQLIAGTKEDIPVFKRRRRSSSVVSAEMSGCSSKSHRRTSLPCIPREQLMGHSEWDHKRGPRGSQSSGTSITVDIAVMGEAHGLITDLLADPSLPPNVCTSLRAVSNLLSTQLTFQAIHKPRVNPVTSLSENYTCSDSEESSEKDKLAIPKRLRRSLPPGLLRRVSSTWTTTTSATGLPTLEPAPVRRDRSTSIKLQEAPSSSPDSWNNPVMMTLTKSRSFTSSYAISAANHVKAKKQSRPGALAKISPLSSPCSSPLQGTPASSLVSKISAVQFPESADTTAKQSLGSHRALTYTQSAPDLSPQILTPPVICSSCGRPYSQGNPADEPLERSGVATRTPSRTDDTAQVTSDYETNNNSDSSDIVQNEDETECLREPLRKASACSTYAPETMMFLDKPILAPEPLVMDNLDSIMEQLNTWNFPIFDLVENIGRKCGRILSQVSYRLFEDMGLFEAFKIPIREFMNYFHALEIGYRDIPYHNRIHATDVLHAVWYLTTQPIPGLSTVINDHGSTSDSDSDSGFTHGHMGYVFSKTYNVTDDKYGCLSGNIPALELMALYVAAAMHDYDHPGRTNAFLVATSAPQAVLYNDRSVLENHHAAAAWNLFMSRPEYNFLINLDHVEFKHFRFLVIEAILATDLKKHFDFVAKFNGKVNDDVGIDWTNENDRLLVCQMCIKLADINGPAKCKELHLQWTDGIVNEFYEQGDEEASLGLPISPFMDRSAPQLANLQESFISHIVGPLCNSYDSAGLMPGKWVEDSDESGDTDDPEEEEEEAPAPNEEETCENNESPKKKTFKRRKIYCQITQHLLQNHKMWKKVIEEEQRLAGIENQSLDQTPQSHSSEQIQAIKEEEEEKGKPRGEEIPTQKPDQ
Note: assay procedure not described here.

SMILES: CC1(C)O[C@@H]2[C@@H](CO[C@@]3(COS(N)(=O)=O)OC(C)(C)O[C@@H]23)O1 [TOPIRAMATE]
- AC50 (Adenosine receptor A1): > 30 µM
- AC50 (Adenosine receptor A3): > 30 µM
- AC50 [1]: > 30 µM
- AC50 [2]: > 30 µM
- AC50 [3]: > 10 µM
- AC50 [4]: > 10 µM
- AC50 (D(1A) dopamine receptor): > 10 µM
- AC50 [5]: > 10 µM
- AC50 [6]: > 30 µM
- AC50 [7]: > 30 µM

SMILES: CN(CC(=O)O)C(=N)N [CREATINE]
- AC50 [2]: > 30 µM

SMILES: O=C1[C@H]2CCCC[C@H]2C(=O)N1CCCCN1CCN(c2nsc3ccccc23)CC1 [PEROSPIRONE]
- AC50 [2]: 10.3 µM

SMILES: CC(C)(N)C(=O)N[C@H](Cc1c[nH]c2ccccc12)C(=O)N[C@H](Cc1c[nH]c2ccccc12)NC=O [MACIMORELIN]
- AC50 [2]: > 30 µM

SMILES: O=C(O)c1cc(=O)c2ccccc2o1 [CHROMOCARB]
- AC50 [2]: > 30 µM

SMILES: CN(C)CCC(c1ccccc1)c1ccccn1 (stereo unspecified) [PHENIRAMINE]
- AC50 [2]: > 30 µM

SMILES: CC(C)[N+](C)(CCOC(=O)C1c2ccccc2Oc2ccccc21)C(C)C [PROPANTHELINE]
- AC50 [2]: 0.003 µM

SMILES: Cc1cc2c(OCC(O)CNC(C)C)cccc2[nH]1 (stereo unspecified) [MEPINDOLOL]
- AC50 [2]: > 30 µM

SMILES: C[C@]12CCC(=O)C=C1CC[C@@H]1[C@@H]2[C@@H](O)C[C@@]2(C)[C@H]1CC[C@]2(O)C(=O)COC(=O)CCC(=O)O [HYDROCORTISONE HEMISUCCINATE ANHYDROUS]
- AC50 [2]: > 30 µM

SMILES: CC(=O)Oc1ccccc1C(=O)Nc1ncc([N+](=O)[O-])s1 [NITAZOXANIDE]
- AC50 (Adenosine receptor A1): 7.1 µM
- AC50 (Adenosine receptor A3): 5 µM
- AC50 [1]: 5.6 µM
- AC50 [2]: 4.33 µM
- AC50 [4]: 8.8 µM
- AC50 (D(1A) dopamine receptor): > 30 µM
- AC50 [5]: > 30 µM
- AC50 [6]: 17 µM
- AC50 [7]: > 30 µM

SMILES: CCCCCCCCCCC[C@@H](C[C@@H]1OC(=O)[C@H]1CCCCCC)OC(=O)[C@H](CC(C)C)NC=O [ORLISTAT]
- AC50 [2]: > 30 µM

SMILES: N[C@@H](CSSC[C@H](N)C(=O)O)C(=O)O [CYSTINE]
- AC50 [2]: > 30 µM

SMILES: CNC[C@H](O)c1cccc(O)c1 [PHENYLEPHRINE]
- AC50 (Adenosine receptor A1): > 30 µM
- AC50 (Adenosine receptor A3): > 30 µM
- AC50 [1]: > 30 µM
- AC50 [2]: > 30 µM
- AC50 [3]: > 10 µM
- AC50 [4]: > 10 µM
- AC50 (D(1A) dopamine receptor): 3.13 µM
- AC50 [5]: > 10 µM
- AC50 [6]: > 30 µM
- AC50 [7]: > 30 µM

SMILES: CCCCCCCCCCCCCCCC(=O)OC/C=C(C)/C=C/C=C(C)/C=C/C1=C(C)CCCC1(C)C [VITAMIN A PALMITATE]
- AC50 [2]: > 30 µM

SMILES: CCCCCOc1ccc(-c2cc(-c3ccc(C(=O)N[C@H]4C[C@@H](O)[C@@H](O)NC(=O)[C@@H]5[C@@H](O)[C@@H](C)CN5C(=O)[C@H]([C@H](O)CC(N)=O)NC(=O)[C@H]([C@H](O)[C@@H](O)c5ccc(O)c(OS(=O)(=O)O)c5)NC(=O)[C@@H]5C[C@@H](O)CN5C(=O)[C@H]([C@@H](C)O)NC4=O)cc3)no2)cc1 [MICAFUNGIN] (X1-[Orn(4R-OH,5R-OH)]T[Hyp][hTyr(3S-OH,4S-OH,3'-OSO3H)][Gln(3R-OH)][Pro(3S-OH,4S-Me)]; lactam 1-C)
- AC50 [2]: 9.05 µM

SMILES: NCCc1ccc(O)cc1 [TYRAMINE]
- AC50 [2]: > 30 µM

SMILES: CN(C)CCCN1C(=O)c2cc([N+](=O)[O-])ccc2Oc2ccccc21
- AC50 [2]: > 30 µM

SMILES: C[C@]12CC[C@@H]3c4ccc(O)cc4CC[C@H]3[C@@H]1CC[C@@H]2OC(=O)CCC1CCCC1 [ESTRADIOL CYPIONATE]
- AC50 [2]: > 30 µM

SMILES: CC(=O)/N=c1/sc(S(N)(=O)=O)nn1C [METHAZOLAMIDE]
- AC50 (Adenosine receptor A1): > 10 µM
- AC50 (Adenosine receptor A3): > 10 µM
- AC50 [1]: > 10 µM
- AC50 [2]: > 30 µM
- AC50 [3]: > 10 µM
- AC50 [4]: > 10 µM
- AC50 (D(1A) dopamine receptor): > 10 µM
- AC50 [5]: > 10 µM
- AC50 [6]: > 10 µM
- AC50 [7]: > 30 µM

SMILES: CCOc1ccc2ccccc2c1C(=O)N[C@@H]1C(=O)N2[C@@H]1SC(C)(C)[C@@H]2C(=O)O [NAFCILLIN]
- AC50 [2]: > 30 µM
